# In PMC11219860, “A chemogenetic approach for dopamine imaging with tunable sensitivity” (Nature Communications, 2024):
# Where two headings read alike, the source gives them in different places.
# Columns and labels:
# NAc DRD1-MSNs = test: Footshock-induced NAc DRD1-MSN activity (jGCaMP8m photometry); conditions: DETQ 10 mg/kg; SCH-23390 0.1 mg/kg i.p.
# Description: Cue-reward paradigm (NAc recordings) was carried out in an operant chamber within a sound-attenuating box with low red light illumination (30 Lux). […] During the next session mice were trained to initiate reward delivery via licking. […] During expert sessions CS-US pairings were repeated 20 times per session ( ~ 30 min for each session). Mice underwent a total of 12 sessions for cue-reward learning. 10 minutes before each session drugs were injected i.p. […] The rewards were delivered from 10 to 40 min post vehicle or DETQ injection. Chambers and lick ports were sanitized with ethanol between mice. For all sessions, lick data and photometry recordings were simultaneously obtained; licking behaviour was detected by a capacity-based sensor. Latency to reward-anticipatory licking was calculated as the time between the CS and lick onset. The lick proportion was calculated as the percent time mice spent licking during CS presentation divided by the percent time mice spent licking during the rest of the session (without CS). […] Fiber photometry recordings were analyzed using custom-written Matlab scripts. […] Change in fluorescence, ΔF/F0 (%), was defined as (F-F0)/F0 x 100, where F represents the fluorescent signal (465-nm) at each time point. F0 was calculated by applying a least-squares linear fit (polyfit) to the 405-nm signal to align with the 465-nm signal. […]
# [1] = 10 and 30 mg/kg per os, ref Svensson et al 2017, cited from earlier work
# dLight1.3b [2] = test: Unpredicted reward or footshock with PFC dLight1.3b photometry; type: in vivo, mouse
# Description: (§1) After habituating mice to the experimental chamber (4 consecutive days for 5–10 min) mice were food restricted to 90% ad libitum body weight. […] During learning sessions, the delay between CS and US was increased every training day from 2 to 10 seconds until mice became expert. […] After i.p. injection, mice were placed into an operant chamber. 3–4 electric footshocks (0.4 mA for 1 second) were delivered 10 to 25 min post vehicle or DETQ with variable intervals (randomly chosen from a uniform distribution between 240 and 360 seconds or between 120 and 240 seconds) without predictive cues. Mouse freezing behavior was monitored with a video camera (C310 Logitech,10 frames per second) positioned above the recording chamber and controlled by the Synapse software. […] Freezing was defined as the complete cessation of all movement for at least 1 s during a 25-min testing duration.
# For long-term recordings during optogenetic stimulation or chemogenetic inhibition linear fit was calculated across the entire recording or across the vehicle epoch; for event-related experiments fit was performed on fluorescent data obtained in the −60 to +60 s around opto events or −5 to −1 s around behavioral events. […] DA event-related responses were quantified by computing the value at the transient’s peak value and the AUC in the 0 to 10 s or 0 to 60 s period post-event onset. […] The maximal peak value of Veh-normalized ΔF/F0 after opto-onset was plotted over time and the plateau of maximal response was determined by averaging peak opto responses 5, 10, 15 and 20 min post-DETQ. We then looked at trials between 5 and 65 min post-DETQ to determine which trials belonged to a ‘temporal window for stable imaging’. […] Average ΔF/F0 in the 10–20 min post vehicle injection, 0–10 min post DETQ/Veh and 2–12 min post J60/Veh were computed. […] For weekly DETQ injection, AUC was calculated in the relevant drug epoch (Veh, DETQ) and normalized against the duration of that epoch (Veh: 10 min, DETQ: 50 min). […] AUC of the baseline was calculated within the +5 to +40 minutes time window post ip injection. For detection of spontaneous DA peaks the calculated ΔF/F0 was smoothed with a 50 datapoints (410 milliseconds) moving window, and the built-in Matlab function findpeaks was applied, with the threshold for minimal peak prominence set to 0.5% ΔF/F0.
# Open field behavior = type: in vivo, mouse
# Description: For combined locomotion/photometry experiments in the open field (OF) in tethered mice, a 50 × 50 cm arena was used. Fiber photometry was conducted using a Doric photometry rig combined with a filter/mirror minicube set (Doric Lenses), as above. […] Data were sampled at 122 Hz. […] Mice were habituated to the chamber for 3 consecutive days (30 minutes per day). On experimental days, locomotor activity was video recorded and synchronized with fiber photometry signal recording. The baseline DA signal was recorded for 20 minutes, then the mouse received i.p. injection of vehicle or DETQ (10 mg/kg) in interleaved sessions. Following injection, the DA signal was recorded for an additional 90 minutes. The OF chamber was cleaned with ethanol and water between mice. Recording sessions were repeated at 48 hours intervals. Mouse behavior as well as photometry signals were analyzed with a custom-written MATLAB script. Mouse locomotion was computed using the body center point of the animal. The center zone of the arena was defined automatically during behavior data analysis as the 25 × 25 cm square with the central point aligned to the center of the open field. The distance moved and time spent in the center zone were quantified in 10 minutes time bins and as the total during the 90 minutes after ip injections. To test the dose-dependent effects of DETQ on locomotion in untethered mice, mice were injected i.p. with vehicle, DETQ (3, 10 or 30 mg/kg) or cocaine (20 mg/kg) while their locomotor activity was recorded in an OF arena (60 x 60 cm) for 45 min. Videos were recorded with a Logitech C270 camera and analyzed with DeepLabCut (version 2.1.8.2)[84] on an existing open field network. Representative traces were generated with the Anymaze (v7.2) software (Stoelting Co.).
# dLight1.3b [3] = test: Cue-reward Pavlovian conditioning with NAc dLight1.3b photometry; type: in vivo, mouse
# Description: as §1
# For long-term recordings during optogenetic stimulation or chemogenetic inhibition linear fit was calculated across the entire recording or across the vehicle epoch; for event-related experiments fit was performed on fluorescent data obtained in the −60 to +60 s around opto events or −5 to −1 s around behavioral events. […] DA event-related responses were quantified by computing the value at the transient’s peak value and the AUC in the 0 to 10 s or 0 to 60 s period post-event onset. […] The maximal peak value of Veh-normalized ΔF/F0 after opto-onset was plotted over time and the plateau of maximal response was determined by averaging peak opto responses 5, 10, 15 and 20 min post-DETQ. We then looked at trials between 5 and 65 min post-DETQ to determine which trials belonged to a ‘temporal window for stable imaging’. […] AUC of the baseline was calculated within the +5 to +40 minutes time window post ip injection. For detection of spontaneous DA peaks the calculated ΔF/F0 was smoothed with a 50 datapoints (410 milliseconds) moving window, and the built-in Matlab function findpeaks was applied, with the threshold for minimal peak prominence set to 0.5% ΔF/F0.
# [4] = NAc, DETQ 10 mg/kg vs vehicle days
structure (smiles),measurement,setting,value
"C[C@H]1c2cccc(C(C)(C)O)c2C[C@H](CO)N1C(=O)Cc1c(Cl)cccc1Cl [DETQ, 2-(2,6-dichlorophenyl)-1-((1S,3R)-3-(hydroxymethyl)-5-(2-hydroxypropan-2-yl)-1-methyl-3,4-dihydroisoquinolin-2(1H)-yl)ethan-1-one]",footshock-induced activity in NAc DRD1-MSNs,NAc DRD1-MSNs,remained unaffected
same,behavioral activity,[1]; hD1 mice,pronounced behavioral activation
same,behavioral activity,[1]; wild type mice,no behavioral activity
same,increase in the average peak amplitude vs. Vehicle,"dLight1.3b [2]; PFC, unpredicted reward",2 fold
same,single trials with detected response to reward,"dLight1.3b [2]; PFC, unpredicted reward",90.91 ± 1.40%
same,amplitude of DA signals during unexpected footshocks,"dLight1.3b [2]; PFC, vs interleaved vehicle days",significantly larger
same,response to footshocks (freezing),"dLight1.3b [2]; mouse, in vivo",not affected
same,licking duration,dLight1.3b [2]; unpredicted reward,remained unchanged
same,total locomotion or time spent in the center,"Open field behavior; tethered mice, DETQ 10 mg/kg",did not observe any effect
same,locomotion in open field,"Open field behavior; untethered mice, 45 min, DETQ 3, 10, 30 mg/kg i.p., cocaine 20 mg/kg",did not have a significant effect
same,latency to lick and overall licking activity,dLight1.3b [3]; DETQ 10 mg/kg,not affected
same,enhancement factor of CS-associated DA peak amplitude,dLight1.3b [3]; [4],approximately 2 fold
same,enhancement factor of US-associated DA peak amplitude,dLight1.3b [3]; [4],~1.5 fold
